IC50 data for one compound are collected here from BindingDB's records for doi:10.1016/j.bmcl.2009.04.124 (H. Lee Moffitt Cancer Center, 2009).

The test addresses E3 ubiquitin-protein ligase Mdm2 (Homo sapiens, UniProt Q00987). Nature of the test: AlphaScreen Assay. To be noted: pH 7.4; 24 °C. How it is done:
When two proteins interact (one of which is conjugated to the donor bead and the other to the acceptor bead) the beads are brought into close proximity. Excitation of a photosensitizer in the donor bead results in the production of singlet oxygen that diffuses to and reacts with a chemiluminescent molecule in the acceptor bead. […] Nickel acceptor beads and glutathione donor beads were added. Following 1 h incubation at 24 deg C, the mixture was analyzed in a fluorometer at an excitation wavelength of 680 nm. Nutlin-3a obtained from Cayman Chemical was used as a control. The IC50 values reported are from runs repeated four times.
Background: Bead proximity is the source of the signal in Alpha formats.

E3 ubiquitin-protein ligase Mdm2, sequence (Q00987 whole entry): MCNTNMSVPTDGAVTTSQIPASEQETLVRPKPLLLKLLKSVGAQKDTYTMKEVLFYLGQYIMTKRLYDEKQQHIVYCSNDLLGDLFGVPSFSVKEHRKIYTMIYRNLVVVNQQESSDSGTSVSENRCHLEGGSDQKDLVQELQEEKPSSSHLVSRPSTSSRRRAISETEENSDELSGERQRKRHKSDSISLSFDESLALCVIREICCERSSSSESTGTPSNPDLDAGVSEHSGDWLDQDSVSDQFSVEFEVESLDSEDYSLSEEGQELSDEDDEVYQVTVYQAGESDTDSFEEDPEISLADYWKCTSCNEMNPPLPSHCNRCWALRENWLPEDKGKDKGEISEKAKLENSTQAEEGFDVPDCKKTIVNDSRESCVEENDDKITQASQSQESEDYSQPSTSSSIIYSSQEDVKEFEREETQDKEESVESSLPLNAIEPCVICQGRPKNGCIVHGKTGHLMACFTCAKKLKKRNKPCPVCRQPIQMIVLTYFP

The IC50 is the concentration that inhibits the measured activity by half. As for `c1ccc(C(N=Nc2nc3ccccc3s2)c2ccccn2)cc1` (stereo unspecified) [NSC-333003], the IC50 was found to be 25 µM. In other words, the double-digit micromolar range.
